Reference: US20240247048A1 (EMORY UNIVERSITY, priority 2021, published 2024)

Legend:
KPC-Luc tumors = experiment: subcutaneous KPC / KPC-Luc pancreatic tumors in C57BL/6 mice; type: in vivo, mouse
Procedure: Shown are scrambled peptide plus IgG, Ant308 plus anti-PD1, scrambled peptide plus anti-PD-1, Ant308 plus IgG, and Ant308 plus AMD3100. Tumor volume was measured with calipers. ‘Star’ (*) indicates mice euthanized either due to large tumor volume (>500 mm^3) or ulceration of the skin overlying the tumor.
This decease in tumor volume was more pronounced in combination with anti-PD1 treatment. We also examined the effect of ANT308 in combination with Iso IgG or anti-PD1 antibody had on tumor volume as measured as a percent change in volume (FIG. 8A) and in measured volume (FIG. 8B). […] Investigating this effect more completely, we observed that combination treatment with both anti-PD1 and VIP-R antagonist was able to slow tumor growth relative to control mice treated with scrambled peptide and iso-type matched IgG, with the combination showing a statistically significant improvement in the rate of tumor growth (FIG. 8D). […]
In vivo efficacy studies. […] In the KPC-Luc models, the tumor growth rate was plotted using the tumor flux measurements quantified using IVIS bioluminescent imaging. […] In experiments with subcutaneous tumors, Vernier calipers were used to measure the tumor dimensions and the tumor volume was calculated using the formula: tumor volume=½(length×width×height).

[1] = system: wild type and VPAC2 KO Panc02 cells; experiment: MTT viability of wild type and VPAC2 KO Panc02 cells; type: cell-based, mouse; details: 3 uM for 72 hours; FIG. 24f
Procedure: (FIG. 24A) Percentage viability of murine (MT5, KPC.Luc, Panc02) and human (Capan02, BxPC3) PDAC cell lines cultured in the presence of different concentrations ranging from 0-5 μM of ANT008 for 72 hours is plotted. Confirmation of CRISPR-Cas9 KO of VIPR2 encoding VPAC2 receptor via (FIG. 24B) western blot; (FIG. 24C) RT-PCR using primers targeting exon 9-12 downstream of targeted site and (FIG. 24D) Sanger Sequencing showing the validation of in-del mutation in exon 2. In vitro MTT assay showing (FIG. 24E) Proliferation of WT and KO cells over 72 hours; (FIG. 24F) Percent viability of wild type (WT) and VPAC2 KO (KO) Panc02 cells treated with ANT008 and ANT308 at 3 μM for 72 hours. (FIG. 24G) Tumor growth curve of WT versus KO Panc02 cells in C57BL/6 mice following subcutaneous tumor implantation. Values represent median tumor volume±95% confidence interval. (FIG. 24H) Kaplan-Meier survival plots corresponding to results in FIG. 24G. Median survival time for WT is 21 days and 28 days for VPAC2 KO. Error bars represent mean and standard deviation. *p<0.05, **p<0.01.
Cell viability assay. […] Cell viability was assessed using cell proliferation kit I from Roche (Basel, Switzerland), following the manufacturer's instructions. […] This was followed by incubation with solubilization buffer overnight and reading the absorbance at 570 nm. […]

KPRRPYTSDYTRLRKQMAVKKYLNLILN [ANT308]
growth of tumors compared with control mice (scrambled peptide and isotype-matched IgG) (KPC-Luc tumors; FIG. 9): not statistically different
tumor volume (KPC-Luc tumors; day 22, 3 days after a 10-day course, FIG. 7): reduced tumor volume
in vitro growth of VPAC2 knockout or wild-type Panc02 cells [1]: did not inhibit
